We go through 14 compounds from PubChem BioAssay (NCI).

Some test systems named below: SF-295 CNS; RPMI-8226 leukemia; SN12C renal; SF-268 CNS; SNB-19 CNS; K-562 leukemia; IGROV1 ovarian; SR leukemia; HOP-92 NSCLC; SF-539 CNS; M14 melanoma.
Test in all cases: inhibition of tumour cell growth, NCI panel, 48 h

Structures are written as SMILES. Several values for one entry are separate records, joined by “and”; a condition that tells them apart may be missing. Equal entries are not always repeated.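 Grown in 96-well plates, cells were treated for 48 hours with each compound at five concentrations. Insufficient inhibition: endpoint recorded as highest concentration tested. GI50: concentration for 50% inhibition of growth. TGI is the concentration that stops growth completely.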

Consider `O=C1CCCCCCCCCCC1CN1CCCCC1` (stereo unspecified), for which the TGI with SF-295 CNS, in the test on RPMI-8226 leukemia, in the test with SN12C renal, in the test with SF-268 CNS, with SNB-19 CNS and in the test on K-562 leukemia was over 100 µM throughout. The TGI with IGROV1 ovarian and with SR leukemia was over 100 µM in each case.
For `N#Cc1c(-c2ccccc2)[nH]c(=O)n(C2OC(CO)C(O)C(O)C2O)c1=O` (stereo unspecified), the TGI with SF-295 CNS, in the test on HOP-92 NSCLC, with SF-539 CNS, in the test on RPMI-8226 leukemia, in the test with SN12C renal and with M14 melanoma was over 100 µM throughout. Moreover, the TGI with SF-268 CNS, in the test with SNB-19 CNS, in the test with K-562 leukemia and in the test with IGROV1 ovarian was over 100 µM each time. The GI50 in the test on IGROV1 ovarian is > 100 µM and 21.3 µM.
Regarding `CC(=O)OC[C@@H](OC(C)=O)[C@H](OC(C)=O)[C@@H]1OC(C)(C)O[C@@H]1C1SCCCS1`, the TGI in the test with SF-295 CNS, in the test with SF-539 CNS, in the test on RPMI-8226 leukemia, in the test with M14 melanoma, in the test on SF-268 CNS and in the test on SNB-19 CNS was over 100 µM throughout. For the same compound, the TGI in the test with K-562 leukemia and with SR leukemia was over 100 µM each time.
With `O=[N+]([O-])c1cc2c(cc1/C=N/n1c(CO)nc3ccccc31)OCO2`, the TGI with SF-295 CNS, in the test on HOP-92 NSCLC, in the test on SF-539 CNS, in the test with RPMI-8226 leukemia, with SN12C renal and in the test on M14 melanoma was over 100 µM each time. Also, the TGI in the test with SF-268 CNS, in the test on SNB-19 CNS and in the test with K-562 leukemia was over 100 µM throughout.
Regarding `Nc1nc(N)c2cc(NCc3ccc(Cl)c(Cl)c3)ccc2n1`, the GI50 was 1.22 µM with SF-295 CNS; 0.348 µM in the test on HOP-92 NSCLC; 1.65 µM with SF-539 CNS; 1.5 µM with SN12C renal; 0.841 µM with M14 melanoma; 1.58 µM with SF-268 CNS. Besides, the GI50 with SNB-19 CNS was 1.46 µM. Moreover, the TGI in the test with SF-295 CNS worked out at 2.61 µM; in the test with HOP-92 NSCLC it was 1.75 µM; in the test on SF-539 CNS, 3.04 µM; with SN12C renal, 2.89 µM; in the test on M14 melanoma it was 2.16 µM; with SF-268 CNS, 3.12 µM. In the test on SNB-19 CNS, this compound had a TGI of 2.78 µM.
For `O=S(=O)(/N=C(\NO)Nc1ccc(Cl)cc1)c1cccc2nsnc12`, the TGI in the test on SF-295 CNS was over 100 µM; in the test on HOP-92 NSCLC, 73.7 µM; with SF-539 CNS, over 100 µM; with SN12C renal, 63.1 µM; with M14 melanoma, over 100 µM; with SF-268 CNS, over 100 µM. Further, the TGI with SNB-19 CNS, with K-562 leukemia and in the test on IGROV1 ovarian was over 100 µM throughout.
Turning to `COc1ccc(CN=C(N)N)c2ccccc12`, the TGI in the test on SF-295 CNS is 36.7 µM; with SF-539 CNS, 52.8 µM; in the test with RPMI-8226 leukemia it was over 100 µM; with SN12C renal it was 52.4 µM; in the test with M14 melanoma, over 100 µM; in the test with SF-268 CNS, 38.8 µM. The compound further came in with a TGI in the test on SNB-19 CNS of over 100 µM.
Take `NNC(=O)c1nnn(CCc2ccccc2)c1C(=O)NN`: the TGI in the test on SF-295 CNS, with RPMI-8226 leukemia, in the test with SN12C renal, in the test with M14 melanoma, in the test with SNB-19 CNS and in the test on K-562 leukemia was over 100 µM throughout. Further, the TGI in the test with SR leukemia was over 100 µM.
For `N#Cc1c(-c2ccccc2)c(N=Nc2ccc(Cl)cc2)c(=O)n2c1[nH]c1ccccc12`, the TGI with SF-295 CNS, in the test on SF-539 CNS, in the test with RPMI-8226 leukemia, with SN12C renal, in the test on M14 melanoma and in the test with SF-268 CNS was over 100 µM in each case. The TGI in the test with SNB-19 CNS and with IGROV1 ovarian was over 100 µM each time.
`Cc1c(C(=O)/C=C/c2ccccc2O)c(=O)n(-c2ccccc2)n1C`: the TGI in the test with SF-295 CNS was 54.9 µM; with HOP-92 NSCLC it was 64.6 µM; in the test with SF-539 CNS it was 55.5 µM; in the test with SN12C renal, 52.6 µM; with SF-268 CNS it was over 100 µM; in the test with SNB-19 CNS it was over 100 µM. Besides, in the test on IGROV1 ovarian, the TGI was over 100 µM.
As for `CCOC(=O)CNc1nc(=O)c2c(=O)oc(Cl)cc2o1`, the TGI is over 100 µM in the test on SF-295 CNS; 19.5 µM in the test with HOP-92 NSCLC; 22 µM in the test with SF-539 CNS; 53.1 µM in the test on SN12C renal; 49.1 µM with M14 melanoma; 27.9 µM in the test on SF-268 CNS. For the same compound, the values for the TGI with SNB-19 CNS, in the test on K-562 leukemia and with IGROV1 ovarian were over 100 µM, 24.4 µM and 21.7 µM, respectively.
Turning to `COc1ccc(C2SCC(=O)N2NC(=O)c2ccc(NC(C)=O)cc2)cc1` (stereo unspecified), the TGI was over 100 µM in the test on SF-295 CNS; 89.2 µM with HOP-92 NSCLC; over 100 µM in the test with SF-539 CNS; over 100 µM in the test with RPMI-8226 leukemia; over 100 µM with SN12C renal; over 100 µM in the test with M14 melanoma. The TGI in the test on SF-268 CNS, with SNB-19 CNS, in the test on K-562 leukemia and with IGROV1 ovarian was over 100 µM throughout.
For the compound `CC(=O)N=C1N(/C=C2\C(=O)Oc3ccccc3C2=O)C(=O)/C(=C/c2ccc(Cl)cc2Cl)N1C`, the TGI in the test on SF-295 CNS, in the test with SF-539 CNS, with RPMI-8226 leukemia, in the test on SN12C renal, in the test on M14 melanoma and in the test on SF-268 CNS was over 100 µM each time. In addition, the TGI in the test with K-562 leukemia is over 100 µM; with IGROV1 ovarian, over 100 µM; in the test on SR leukemia it was 94.2 µM.
As to `Cc1cn([C@@H]2O[C@H](CO[Si](C)(C)C(C)(C)C)[C@]3(O[C@H]3C(=O)NN)[C@H]2O[Si](C)(C)C(C)(C)C)c(=O)[nH]c1=O`, the TGI was 22.2 µM with SF-295 CNS; 19.7 µM in the test on HOP-92 NSCLC; 16.3 µM in the test with SF-539 CNS; 9.19 µM with RPMI-8226 leukemia; 13.9 µM with SN12C renal; 20.4 µM in the test with M14 melanoma. In addition, the TGI with SF-268 CNS turned out to be 12 µM; with SNB-19 CNS, 21.7 µM; in the test with K-562 leukemia, 7.17 µM; in the test on IGROV1 ovarian it was 18.6 µM.
